Test results as given in US10758631B2, “Solid cyanine dyes” (LI-COR, Inc., priority 2017, dated 2020).

Assay: Mouse urine: fluorescence of extracted urine after injection
Format: in vivo
Conditions: mice, urine extracted with acetonitrile:methanol mix, imaged on Odyssey CLx imager
Excerpt: The urine is extracted with an acetonitrile:methanol mix and imaged on an Odyssey CLx imager (LI-COR Biosciences).

Structure (SMILES): CC1(C)C(/C=C/C=C/C=C/C=C2\N(CCCCS(=O)(=O)O)c3ccc4ccccc4c3C2(C)C)=[N+](CCCCS(=O)(=O)[O-])c2ccc3ccccc3c21 [ICG, indocyanine green]
- fluorescent signal in urine: No fluorescent signal
